Measured values as given in article PMC3033209 (Journal of applied microbiology, 2009).

Target: T1, β-glucosidase from L. brevis SK3 (Levilactobacillus brevis, UniProt Q03P52)
T1 sequence (Q03P52 1-751): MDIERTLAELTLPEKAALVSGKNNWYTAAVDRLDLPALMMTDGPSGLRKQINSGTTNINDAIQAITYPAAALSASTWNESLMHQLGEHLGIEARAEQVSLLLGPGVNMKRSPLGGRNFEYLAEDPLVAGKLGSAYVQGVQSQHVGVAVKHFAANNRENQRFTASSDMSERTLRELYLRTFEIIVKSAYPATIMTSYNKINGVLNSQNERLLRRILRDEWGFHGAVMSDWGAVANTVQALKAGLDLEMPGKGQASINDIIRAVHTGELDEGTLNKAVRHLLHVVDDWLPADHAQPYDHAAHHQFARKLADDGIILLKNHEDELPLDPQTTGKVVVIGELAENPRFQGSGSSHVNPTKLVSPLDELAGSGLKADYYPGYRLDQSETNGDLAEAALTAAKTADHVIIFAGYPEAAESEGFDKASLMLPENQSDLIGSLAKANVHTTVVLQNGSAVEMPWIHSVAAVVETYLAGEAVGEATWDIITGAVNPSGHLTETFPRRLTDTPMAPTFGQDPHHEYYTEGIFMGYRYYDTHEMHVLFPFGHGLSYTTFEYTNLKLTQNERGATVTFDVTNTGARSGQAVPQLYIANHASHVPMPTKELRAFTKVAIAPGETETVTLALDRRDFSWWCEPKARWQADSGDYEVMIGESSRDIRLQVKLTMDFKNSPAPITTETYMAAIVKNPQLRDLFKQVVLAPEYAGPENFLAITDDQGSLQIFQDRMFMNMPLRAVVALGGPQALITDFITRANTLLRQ
Assay: standard glucosidase assay, p-nitrophenol at […] nm after stop
Type: biochemical
Conditions: inhibitor, 10 mM pNPβGlc, pH 5.5, 37 °C, 10 min

Row | SMILES | Relative activity (%) (10000 µM) | Relative activity (%) (200000 µM)
1 | O=C1O[C@H](CO)[C@@H](O)[C@H](O)[C@H]1O [Glucono-δ-lactone] | 14% | –
2 | OC[C@H]1OC(O)[C@H](O)[C@@H](O)[C@@H]1O (stereo partly drawn) [Glucose] | – | 59%
3 | O=C(O)[C@H](O)[C@@H](O)[C@H](O)[C@H](O)CO [Gluconic acid] | – | 17%
